Measurements from PMC11348465, “Pharmacochemical Study of Multitarget Amino Acids’ Hybrids: Design, Synthesis, In vitro, and In silico Studies” (Medicinal Chemistry (Shariqah (United Arab Emirates), 2024).
Read-outs that look alike come from different tables or passages of the source.

What was measured:
[1] = cited from earlier work
ovine COX-2 = molecular target: T1, ovine COX-2 (Ovis aries, UniProt P79208); experiment: Cyclooxygenase-2 inhibition study; assay type: biochemical; details: for COX-2 inhibition (%): % inhibition at 100 µM
T1 construct: purchased Cayman (USA)
T1 sequence (P79208 17-603): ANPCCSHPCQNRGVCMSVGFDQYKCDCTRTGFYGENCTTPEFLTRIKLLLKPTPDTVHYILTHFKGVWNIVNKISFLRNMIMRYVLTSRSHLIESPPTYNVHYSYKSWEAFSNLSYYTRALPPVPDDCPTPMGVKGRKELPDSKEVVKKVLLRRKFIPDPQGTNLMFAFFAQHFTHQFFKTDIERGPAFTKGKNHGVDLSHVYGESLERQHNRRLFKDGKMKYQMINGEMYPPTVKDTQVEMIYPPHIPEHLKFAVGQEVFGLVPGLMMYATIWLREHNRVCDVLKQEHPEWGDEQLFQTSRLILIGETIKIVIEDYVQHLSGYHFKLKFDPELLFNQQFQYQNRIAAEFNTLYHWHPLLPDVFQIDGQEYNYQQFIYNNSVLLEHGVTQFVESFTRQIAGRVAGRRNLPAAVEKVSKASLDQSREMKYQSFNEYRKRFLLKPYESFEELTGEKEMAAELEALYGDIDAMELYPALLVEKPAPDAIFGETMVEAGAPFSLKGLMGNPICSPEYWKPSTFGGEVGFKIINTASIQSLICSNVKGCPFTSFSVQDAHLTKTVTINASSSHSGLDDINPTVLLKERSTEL
Procedure: The in vitro study of cyclooxygenase (COX) activity was determined by using arachidonic acid (AA) as the substrate and N,N,N’,N’-tetramethylphenylenediamine (TMPD) as the co-substrate. […] The absorption due to the spontaneous oxidation of TMPD was subtracted from the initial rate of oxidation observed in the presence of AA. […] A blank determination was used first to serve as a negative control. Indomethacin was used as a reference COX-2 inhibitor (positive control).
The role of COX-2 in neurodegenerative diseases has been reported, and COX-2 inhibition is considered of high importance as a therapeutic tool. The designed derivatives were tested for their COX-2 inhibition activity on the ovine COX-2 enzyme. […] Indomethacin was used as a reference compound.

[2] = molecular target: T2, soybean lipoxygenase (LOX-1) (Glycine max, UniProt P08170); experiment: Soybean lipoxygenase inhibition study; assay type: biochemical
T2 construct: purchased Sigma Chemical, Co. (St Louis, MO, USA)
T2 sequence (P08170 1-839): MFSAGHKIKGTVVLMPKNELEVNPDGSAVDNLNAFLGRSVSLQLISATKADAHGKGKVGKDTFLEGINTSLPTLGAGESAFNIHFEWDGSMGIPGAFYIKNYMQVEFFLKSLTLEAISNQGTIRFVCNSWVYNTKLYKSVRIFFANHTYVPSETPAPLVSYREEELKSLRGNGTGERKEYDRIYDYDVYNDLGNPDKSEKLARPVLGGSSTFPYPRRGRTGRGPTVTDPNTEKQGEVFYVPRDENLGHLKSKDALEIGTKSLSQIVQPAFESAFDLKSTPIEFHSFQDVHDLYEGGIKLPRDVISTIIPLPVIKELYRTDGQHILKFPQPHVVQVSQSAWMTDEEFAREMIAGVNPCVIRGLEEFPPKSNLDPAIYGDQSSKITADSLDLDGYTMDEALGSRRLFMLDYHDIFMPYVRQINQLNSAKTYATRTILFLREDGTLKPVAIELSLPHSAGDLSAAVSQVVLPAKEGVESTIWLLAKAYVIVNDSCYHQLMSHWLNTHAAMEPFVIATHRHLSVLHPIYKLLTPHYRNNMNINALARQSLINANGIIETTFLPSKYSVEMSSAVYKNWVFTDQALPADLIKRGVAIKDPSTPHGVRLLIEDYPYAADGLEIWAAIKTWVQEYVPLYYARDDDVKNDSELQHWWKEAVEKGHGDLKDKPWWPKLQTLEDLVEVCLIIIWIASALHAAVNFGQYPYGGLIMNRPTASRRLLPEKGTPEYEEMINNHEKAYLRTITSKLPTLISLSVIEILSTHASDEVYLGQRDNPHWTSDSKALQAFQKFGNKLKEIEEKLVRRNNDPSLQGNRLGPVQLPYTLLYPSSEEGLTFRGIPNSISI
Procedure: Our group evaluated an in vitro study as reported previously. The tested hybrids were incubated at room temperature with sodium linoleate (100 µM) and 200 µL of enzyme solution (1/9 X 10^-4 w/v in saline). […] Different concentrations were used for the determination of IC50. A blank determination was used as a negative control.
Due to the limited work on sufficiently purified human ALOX-5 isoenzyme, most of the published research was performed on the soybean homolog. […] This study used the soybean isoenzyme LOX-1, which exerts maximal activity at pH 9.0 [72].

albumin = experiment: Albumin denaturation studies
Procedure: The synthesized compounds were evaluated for the inhibition of albumin denaturation. Test tubes containing 1 mL of albumin solution (1% w/v in phosphate buffer pH=7.4), buffer, and 20 μL of the tested compounds dissolved in DMSO are incubated at 37°C for 15 minutes (final concentration 100 µM). The incubation follows at 60°C for another 15 minutes to induce albumin denaturation. The samples are cooled to room temperature. Their absorbance was measured at 660 nm. DMSO was used as a blank solution and acetylsalicylic acid as a reference compound. The results are given in Table S1 in the supplementary material.
Protein denaturation has correlated well with the inflammatory response, leading to various inflammatory diseases. It is known that tissue injury during life might refer to the denaturation of cells' protein constituents or intercellular substances. […] Many anti-inflammatory drugs can inhibit the heat-coagulation of serum albumin [78]. Thus, the inhibition of albumin heat-coagulation activity of the designed molecules was examined in vitro [60] as a measure of their anti-inflammatory activity. The experimental results were compared to the standard drug, acetylsalicylic acid. […] The results are given in Table S1 in the supplementary material.

[3] = Inhibition of linoleic acid peroxidation (AAPH-induced)
Procedure: Our group evaluated the in vitro study as reported previously. Ten 16 mM sodium linoleate solution microliters were added to the UV cuvette containing 93 µL of a 0.05 M phosphate buffer, pH 7.4, and 10 µL of the tested compounds (final concentration 100 µM). The oxidation reaction started at 37 °C under air by adding 50 µL of the free radical initiator AAPH (40 mM). Oxidation was carried out and monitored at 234 nm. DMSO under the same conditions was used as a negative control. Trolox was used as the appropriate standard (positive control). The results are given in Table S1 in the supplementary material.
We used the water-soluble 2, 2’-azobis(2-amidinopropane) hydrochloride (AAPH) to generate in vitro peroxyl radicals through spontaneous thermal decomposition, which resembles cellular lipid peroxidation due to the activity of the undertaken radicals. The anti-lipid peroxidation activities were compared to a well-known antioxidant, i.e., Trolox (Table S1 in the supplementary material). […] In general, the anti-lipid peroxidation ranged from 8-99%. Except for acids 11, 12, 17, 19, 21, 22, 24, 25, and 28, which present high antioxidant activities (on the high % level), the other cinnamic acids present low or medium activity.

[4] = molecular target: T2, soybean lipoxygenase (LOX-1); details: % inhibition at 100 µM; cited from earlier work
[5] = read-out: LOX inhibition (IC50)

inhibition at 100 µM (ovine COX-2) [%] | Structure (SMILES) | AAPH inhibition (%, at 100 µM) [1] [%] | Albumin denaturation (%, at 100 µM) (albumin) [%] | AAPH inhibition (%, at 100 µM) [3] [%] | further results
19 | COc1ccc(/C=C/C(=O)O)cc1OC [Compound 18] | 86 |  |  | 
 | N#Cc1ccc(/C=C/C(=O)O)cc1 [Compound 26] | 20 |  |  | inhibition at 100 µM ([2]; read-out: LOX inhibition (%)): 27%; IC50 (ovine COX-2): 65 µM
 | CC(=O)Oc1ccccc1C(=O)O [Aspirin, acetylsalicylic acid, reference compound] |  | 31.2 |  | 
19 | COC(=O)CCC(NC(=O)C=Cc1ccc(O)c(O)c1)C(=O)OC (centres unmarked) [Compound 28c] |  | 31 | 87 | IC50 [2, 5]: 8.5 µM
 | COC(=O)CCCNC(=O)/C=C/c1ccc(O)c(O)c1 [Compound 28b] |  | 44 | 58 | IC50 (ovine COX-2; read-out: COX-2 inhibition (IC50)): 100 µM
 | O=C(O)/C=C/c1cccs1 [Compound 21] | 60 |  |  | 
9 | O=C(O)/C=C/C=C/c1ccccc1 [Compound 23] | 30 |  |  | LOX inhibition (%) [4]: 24%
 | CCOC(=O)CNC(=O)/C=C/c1ccc2c(c1)OC(C)(C)O2 [Compound 29a] |  | 25 | 80 | COX-2 inhibition (%) (ovine COX-2): 38%
4 | O=C(O)/C=C/c1ccccc1 [Compound 22, cinnamic acid] | 78 |  |  | 
 | COC(=O)CC[C@H](NC(=O)/C=C/c1ccc2c(c1)OC(C)(C)O2)C(=O)OC [Compound 29c] |  | 75 | 27 | 
39 | O=C(O)/C=C/c1cccc(Oc2ccccc2)c1 [Compound 12] | 84 |  |  | 
 | COC(=O)CC[C@H](NC(=O)/C=C/c1ccc(OC(C)=O)cc1)C(=O)OC [Compound 30c] |  |  | 16 | IC50 [2, 5]: 100 µM; COX-2 inhibition (%) (ovine COX-2): 6%

Structure (SMILES) | inhibition at 100 µM (ovine COX-2) [%] | AAPH inhibition (%, at 100 µM) [1] [%] | Albumin denaturation (%, at 100 µM) (albumin) [%] | AAPH inhibition (%, at 100 µM) [3] [%] | further results
O=C(O)/C=C/c1ccc(OCc2ccc(Br)cc2)cc1 [Compound 11] | 17 | 84 |  |  | IC50 [2]: 100 µM
